Assay results as given in US20030170181A1, “Method for preventing abuse of methylphenidate” (priority 1999, published 2003).
“And” between values parts separate entries of the source, which are not always exact repeats. Equal entries are not always repeated. Where two headings read alike, the source gives them in different places.

Columns and labels:
[1] = Pharmacokinetics of d-threo and l-threo methylphenidate in plasma after intravenous administration of 10 mg racemic methylphenidate; conditions: for CL / MRT / Vdss / t½ / clearance / Vd / half-life: plasma, IV 10 mg racemic methylphenidate; for clearance / Vd / half-life: male, human, iv, 10 mg; for clearance: CL; for Vd: Vdss; for half-life: t½; for plasma levels of d-MPH versus l-MPH: methylphenidate administered intravenously, up to 1.5 hours post dose
Method: Eleven healthy male subjects were administered 10 mg of racemic methylphenidate (Ritalin®) by intravenous (IV) administration and 40 mg of racemic methylphenidate (Ritalin®) by immediate release (IR) oral administration.

[2] = Pharmacokinetics of d-threo and l-threo methylphenidate in plasma after oral administration of 40 mg immediate release racemic methylphenidate; type: in vivo, human; conditions: for fraction metabolized / bioavailability: after oral administration of commercially available racemic methylphenidate; for Cmax / Tmax / t½ / bioavailability / half-life: plasma; for Cmax / Tmax / t½ / half-life: oral 40 mg immediate release methylphenidate; for bioavailability: read-out: bioavailability in blood plasma; for half-life: read-out: t½ (converted)
males with ADHD = assay: Combined pharmacokinetic/pharmacodynamic study of dose regimens of methylphenidate on activity and attention (OPTAX measures); type: in vivo, human; conditions: pulsatile dosing schedule 2 (PD2): 0.4, 0.4, 0.2 mg/kg at 0, 240, 480 min; compared with CD1, CD2, PD1; twelve-hour day
From the text: Combined pharmacokinetic/pharmacodynamic studies of methylphenidate using different dosage regiments were designed to determine if regimens that produced stable or rising methylphenidate levels had benefits, or if fluctuating levels were necessary to prevent rapid development of tolerance (tachyphylaxis). The experimental subjects were a group of seventy-three males with ADHD recruited from the general population through a newspaper advertisement. Each subject was between the ages of 9 to 12, was objectively hyperactive, and responded positively to methylphenidate. Hyperactivity levels of each boy were determined through OPTAX™ measures, a clinical tool that provides high-resolution assessment of movement patterns during performance of a novel, monotonous, yet challenging cognitive vigilance task. Through the OPTAX™ measures, it is possible to identify differences between drug regimens based solely on dosage schedule, while holding total daily dose constant. Of the 73 original boys, thirteen were excluded based on lack of symptoms by parent interview or on lack of objective hyperactivity greater than 25% over controls on OPTAX™ measures. […]
The double blind parallel group study evaluated the efficacy of methylphenidate for the treatment of ADHD when given in a near continuous amount throughout the day and in pulsatile or fluctuating doses throughout the day. […]

[3] = cited from earlier work
[4] = individual subjects 1-11, listed as d
[5] = male, human, po, 40 mg, mean of 11 subjects, read-out: Cmax
[6] = male, human, po, 40 mg, mean of 11 subjects, read-out: Tmax
[7] = male, human, po, 40 mg, mean of 11 subjects
[8] = individual subjects 1-11, listed as l
[9] = racemic d,l-threo methylphenidate

Compound | clearance ([1]; mean of 11 subjects) | Vd ([1]; mean of 11 subjects) | half-life ([1]; mean of 11 subjects) | MRT ([1]; mean of 11 subjects) | plasma levels of d-MPH versus l-MPH [1] | fraction metabolized [2] | bioavailability ([2]; male, human, 40 mg) | Cmax [2, 5] | Tmax [2, 6] | half-life [2, 7] | other results
COC(=O)[C@H](c1ccccc1)[C@H]1CCCCN1 [d-MPH, d-threo-methylphenidate] | 6.67 mL/min/kg | 2.65 L/kg | 5.96 h | 6.53 H | approximately equivalent plasma levels | approximately 78% | ~22% | 18.1 ng/mL | 2.4 h | 5.69 h | CL [1, 4]: 0.32 L/kg · h^−1 and 0.45 L/kg · h^−1 and 0.33 L/kg · h^−1 and 0.28 L/kg · h^−1 and 0.53 L/kg · h^−1 and 0.20 L/kg · h^−1 and 0.63 L/kg · h^−1 and 0.34 L/kg · h^−1 and 0.44 L/kg · h^−1 and 0.41 L/kg · h^−1 and 0.42 L/kg · h^−1; MRT [1, 4]: 6.49 H and 4.63 H and 5.23 H and 5.75 H and 6.25 H and 4.68 H and 6.79 H and 5.86 H and 7.90 H and 9.44 H and 8.80 H; Vdss [1, 4]: 2.09 L/kg and 2.10 L/kg and 1.73 L/kg and 1.59 L/kg and 3.28 L/kg and 0.92 L/kg and 4.27 L/kg and 2.01 L/kg and 3.51 L/kg and 3.91 L/kg and 3.68 L/kg; t½ [1, 4]: 4.88 h and 4.81 h and 4.17 h and 5.38 h and 6.65 h and 3.97 h and 6.93 h and 4.65 h and 6.80 h and 8.68 h and 8.62 h; Cmax [2, 4]: 12.42 ng/mL and 16.49 ng/mL and 13.81 ng/mL and 22.02 ng/mL and 18.52 ng/mL and 24.54 ng/mL and 22.48 ng/mL and 18.25 ng/mL and 22.91 ng/mL and 13.24 ng/mL; Tmax [2, 4]: 2.0 h and 3.0 h and 1.0 h and 4.0 h; t½ [2, 4]: 5.44 h and 6.67 h and 4.44 h and 5.83 h and 4.14 h and 6.22 h and 4.81 h and 6.31 h and 6.09 h and 5.29 h and 8.38 h; Cmax ([2]; male, human, po, 40 mg, individual subjects 1-11, read-out: Cmax): 14.7 ng/mL
COC(=O)[C@@H](c1ccccc1)[C@@H]1CCCCN1 [l-MPH, l-threo methylphenidate] | 12.2 mL/min/kg | 1.8 L/kg | 3.61 h | 2.44 H | approximately equivalent plasma levels | approximately 95% | 5% | 2.98 ng/mL | 2.2 h | 3.93 h | CL [1, 8]: 0.56 L/kg · h^−1 and 0.82 L/kg · h^−1 and 0.59 L/kg · h^−1 and 0.41 L/kg · h^−1 and 1.05 L/kg · h^−1 and 0.26 L/kg · h^−1 and 0.89 L/kg · h^−1 and 0.49 L/kg · h^−1 and 0.78 L/kg · h^−1 and 1.11 L/kg · h^−1 and 1.02 L/kg · h^−1; MRT [1, 8]: 2.28 H and 2.02 H and 2.37 H and 2.63 H and 2.12 H and 2.50 H and 3.34 H and 1.42 H and 3.03 H and 2.84 H; Vdss [1, 8]: 1.27 L/kg and 1.86 L/kg and 1.19 L/kg and 0.97 L/kg and 2.77 L/kg and 0.56 L/kg and 2.23 L/kg and 1.63 L/kg and 1.03 L/kg and 3.36 L/kg and 2.89 L/kg; t½ [1, 8]: 2.08 h and 4.19 h and 2.63 h and 3.57 h and 5.11 h and 2.93 h and 2.21 h and 3.47 h and 4.06 h and 5.23 h; Cmax [2, 8]: 4.23 ng/mL and 2.49 ng/mL and 3.26 ng/mL and 1.59 ng/mL and 3.61 ng/mL and 1.49 ng/mL and 2.88 ng/mL and 4.01 ng/mL and 2.27 ng/mL and 3.03 ng/mL and 3.95 ng/mL; Tmax [2, 8]: 2.0 h and 3.0 h and 1.0 h and 1.5 h and 4.0 h; t½ [2, 8]: 4.61 h and 2.48 h and 4.06 h and 3.80 h and 3.09 h and 3.91 h and 4.24 h and 3.84 h and 3.55 h and 4.23 h and 5.41 h
COC(=O)C(c1ccccc1)C1CCCCN1 (racemic) [methylphenidate, α-phenyl-2-piperidine-acetic acid methyl ester] |  |  |  |  |  |  |  |  |  |  | improvement in activity (males with ADHD): most consistent improvement; improvement in attention (males with ADHD): most consistent improvement; time of maximum drug concentration ([3]; after oral administration): about two; duration of action [3, 9]: one to four; pharmacokinetic elimination half-life [3, 9]: two to three
